Measured values from patent US20140377340A1, “HLA-DR BINDING PEPTIDES AND THEIR USES” (priority 2007, published 2014).

Tests used:
[1] = test system: 15 different HLA-DR molecules; assay: HLA-DR binding assays, panel of 15 different HLA-DR molecules (breadth of binding); details: number of the 15 HLA-DR molecules bound (binders: 1000 nM or better)
purified HLA DRB1*1501 = molecular target: T1, purified HLA DRB1*1501 (Homo sapiens, UniProt P01903+P01911); assay: HLA-DR radioligand binding inhibition assay, DRB1*1501
T1 construct: purified from EBV transformed homozygous cell lines or single MHC allele transfected 721.221, C1R, or fibroblast lines; made in house
Description: (§1) Instead, wells of an opaque white 96-well Optiplate (Packard) are coated with 3 μg (100 μl@ 30 μg/ml) of HLA-specific antibody (Ab) that “capture” complexes of radiolabeled MHC and unlabeled peptide transferred from the molecular binding assay plate in 100 μl of 0.05% NP40/PBS. After a 3-hour incubation period, the supernatant is decanted and scintillation fluid (Microscint 20) added. Captured complexes are then measured on a microplate scintillation and luminescence counter (TopCount NXTTM; Packard).
(§2) HLA-DR purification. Fifteen distinct HLA-DR molecules were used in quantitative assays to measure the binding of peptides to solubilized HLA-DR molecules. […] Briefly, columns of inactivated Sepharose CL4B and Protein A Sepharose were used as pre-columns. HLA-DR molecules were captured by passage of lysates over LB3.1 monoclonal antibody (anti-HLA-DRA) columns. Antibody columns were washed with 10 mM Tris-HCL, pH8.0 with 1% (v/v) NP-40, followed by PBS containing 0.4% (w/v) n-octylglucoside.
(§3) Briefly, 1-10 nM of radiolabeled peptide was co-incubated for 2 days at either room temperature or 37° C. with 1 μM to 1 nM purified HLA-DR molecules in the presence of a cocktail of protease inhibitors. Assays were performed at various pH conditions, ranging from pH 4 to pH 7. […] After incubation, the percentage of HLA-DR-bound radioactivity is determined by capturing HLA-DR/peptide complexes on Optiplates (Packard Instruments, Meriden, Conn.) coated with the LB3.1 antibody and determining bound counts per minute using the TopCount microscintillation counter (Packard Instruments).

purified HLA DRB1*0405 = molecular target: T2, purified HLA DRB1*0405 (Homo sapiens, UniProt P01903+P01911, A100R/A169T/D86S/F76Y/I96L/K127E/L162R/M171V/N62H/P40V/Q125Y/R42H/S133A/S149N/S66Y/V115G/V209L/W38E); assay: HLA-DR radioligand binding inhibition assay, DRB1*0405; details: IC50 nM purified HLA DRB1 *0405, purified HLA DRB1*0405
T2 construct: purified from EBV transformed homozygous cell lines or single MHC allele transfected 721.221, C1R, or fibroblast lines; made in house
Description: as §1, §2, §3

Row | SMILES | Total XRN [1] | IC50 (purified HLA DRB1*1501) [nM] | IC50 (purified HLA DRB1*0405) [nM]
1 | CC[C@H](C)[C@H](NC(=O)[C@@H](NC(=O)[C@@H](NC(=O)[C@H](Cc1ccccc1)NC(=O)[C@H](CCCNC(=N)N)NC(=O)[C@H](CCC(N)=O)NC(=O)[C@@H]1CCCN1C(=O)[C@H](CC(=O)O)NC(=O)[C@H](CCCNC(=N)N)NC(=O)[C@H](C)NC(=O)[C@H](CCSC)NC(=O)[C@H](CCCNC(=N)N)NC(=O)[C@H](CO)NC(=O)[C@@H](N)Cc1ccccc1)C(C)C)C(C)C)C(=O)N[C@@H](CCC(N)=O)C(=O)O [Peptide 9019.0004] | 10 |  | 
2 | CC(C)C[C@H](NC(=O)[C@H](CO)NC(=O)[C@H](C)NC(=O)[C@H](CC(N)=O)NC(=O)[C@@H](NC(=O)[C@@H]1CCCN1C(=O)[C@H](CC(C)C)NC(=O)[C@H](Cc1ccc(O)cc1)NC(=O)[C@@H](NC(=O)[C@@H](N)CC(C)C)[C@@H](C)O)[C@@H](C)O)C(=O)N[C@@H](CO)C(=O)N[C@@H](Cc1ccccc1)C(=O)N[C@@H](CC(C)C)C(=O)N[C@@H](CCC(N)=O)C(=O)N[C@@H](CC(=O)O)C(=O)O [Peptide 9019.0031] | 12 |  | 
3 | CC[C@H](C)[C@H](NC(=O)[C@H](CCC(=O)O)NC(=O)[C@@H](NC(=O)[C@H](CC(C)C)NC(=O)[C@H](CO)NC(=O)[C@H](CCCNC(=N)N)NC(=O)[C@H](CC(C)C)NC(=O)[C@H](CCC(N)=O)NC(=O)[C@H](CC(C)C)NC(=O)[C@H](CCC(=O)O)NC(=O)[C@H](CCCNC(=N)N)NC(=O)[C@H](CC(C)C)NC(=O)CNC(=O)CNC(=O)[C@@H]1CCCN1)[C@@H](C)O)C(=O)O [Peptide 9019.0038] |  | 4410 | 110

Results, then the compound that gave them:

Row | Total XRN [1] | IC50 (purified HLA DRB1*1501) [nM] | IC50 (purified HLA DRB1*0405) [nM] | SMILES
4 | 14 |  |  | CC[C@H](C)[C@H](NC(=O)[C@H](CCCNC(=N)N)NC(=O)CNC(=O)[C@H](CCCNC(=N)N)NC(=O)[C@@H](NC(=O)[C@@H](NC(=O)[C@H](CCC(N)=O)NC(=O)[C@H](CC(C)C)NC(=O)[C@H](CC(N)=O)NC(=O)[C@H](CCC(N)=O)NC(=O)[C@H](Cc1ccccc1)NC(=O)[C@@H](NC(=O)[C@H](CO)NC(=O)[C@@H](N)CC(C)C)C(C)C)C(C)C)[C@@H](C)CC)C(=O)N[C@@H](CC(C)C)C(=O)O [Peptide 9019.0052]
5 | 12 |  |  | CC[C@H](C)[C@H](NC(=O)[C@H](CC(C)C)NC(=O)[C@H](C)NC(=O)[C@H](CC(C)C)NC(=O)CNC(=O)[C@H](CO)NC(=O)CNC(=O)[C@H](CC(C)C)NC(=O)[C@H](CCC(=O)O)NC(=O)[C@H](CCCNC(=N)N)NC(=O)[C@H](CC(C)C)NC(=O)[C@H](CO)NC(=O)[C@H](CCCNC(=N)N)NC(=O)[C@@H](N)CC(C)C)C(=O)N[C@@H](Cc1c[nH]cn1)C(=O)O [Peptide 9019.0057]
6 | 9 |  |  | CC[C@H](C)[C@H](NC(=O)[C@@H](NC(=O)[C@H](CC(C)C)NC(=O)[C@H](CCCCN)NC(=O)[C@H](C)NC(=O)[C@@H](N)[C@@H](C)O)[C@@H](C)O)C(=O)N[C@@H](CCC(=O)O)C(=O)N[C@@H](CO)C(=O)N[C@H](C(=O)N1CCC[C@H]1C(=O)N[C@@H](Cc1ccccc1)C(=O)N[C@@H](CC(N)=O)C(=O)N[C@H](C(=O)N[C@@H](C)C(=O)N[C@@H](CCC(=O)O)C(=O)O)C(C)C)[C@@H](C)O [Peptide 9019.0106]
